Data set [1] has as its target THRα (Homo sapiens (Human), UniProt P10827). In words: GeneBLAzer TR alpha-UAS-bla HEK 293T cell-based agonist assay. Particulars: TR alpha-UAS-bla HEK 293T cells; for EC50: 22 hours incubation; for THRα maximum agnostic capability: T3 as positive control. The protocol:
When a compound enters the cell and binds to THR, the receptor binds to the DNA binding region to form a complete GAL4 dimer that utilizes the GAL4-UAS system to activate β-lactamase expression, which then decomposes the substrate CCF4-AM (coumarin).
The LiveBLAzer™M-FRET B/G (CCF4-AM) substrate was added to the cell plate and incubated for 2 hours at room temperature, shielded from light. […] By detecting the ratio of the two fluorescences (460 nm/530 nm), the EC50 of the compound was calculated using Graphpad Prism software. […] The Z-factor (greater than 0.5) is calculated to monitor the stability of each experiment.

In data set [2] the target is CYP2D6 (Homo sapiens (Human), UniProt P10635). In words: Inhibition of human liver microsomal cytochrome P450 isoenzyme CYP2D6. Particulars: human liver microsomes. It counts as in vitro ADME. How it is done: (§1) To determine the inhibitory effect of the test compound WX001 on the activity of human liver microsomal cytochrome P450 isoenzymes (CYP1A2, CYP2C9, CYP2C19, CYP2D6, and CYP3A4). First, the test compound (10.0 mM) was diluted to prepare a working solution (100×the final concentration) with a concentration of 1.00 mM. Simultaneously, working solutions were respectively prepared for positive inhibitors of the P450 isoenzymes (CYP1A2, CYP2C9, CYP2C19, CYP2D6, CYP3A4 (with midazolam as a probe substrate), and CYP3A4 (with testosterone as a probe substrate)) and specific probe substrates thereof. Human liver microsomes, stored in a refrigerator at a temperature lower than −60° C., were thawed on ice, and once fully dissolved, were diluted with PB to prepare a working solution of a specific concentration (0.127 mg/mL). 20.0 μL of probe substrate was added to the reaction plate (20.0 μL of PB was added to the Blank wells), followed by the addition of 158 μL of human liver microsomal working solution to the reaction plate. The reaction plate was then placed on ice for later use. Then, 2.00 μL of the test compound (N=1) and specific inhibitors (N=2) were added to the corresponding wells. […] Lastly, the plate was sealed, shaken to ensure the content was thoroughly mixed, and analyzed by LC/MS/MS.
Sequence of CYP2D6 (P10635 whole entry): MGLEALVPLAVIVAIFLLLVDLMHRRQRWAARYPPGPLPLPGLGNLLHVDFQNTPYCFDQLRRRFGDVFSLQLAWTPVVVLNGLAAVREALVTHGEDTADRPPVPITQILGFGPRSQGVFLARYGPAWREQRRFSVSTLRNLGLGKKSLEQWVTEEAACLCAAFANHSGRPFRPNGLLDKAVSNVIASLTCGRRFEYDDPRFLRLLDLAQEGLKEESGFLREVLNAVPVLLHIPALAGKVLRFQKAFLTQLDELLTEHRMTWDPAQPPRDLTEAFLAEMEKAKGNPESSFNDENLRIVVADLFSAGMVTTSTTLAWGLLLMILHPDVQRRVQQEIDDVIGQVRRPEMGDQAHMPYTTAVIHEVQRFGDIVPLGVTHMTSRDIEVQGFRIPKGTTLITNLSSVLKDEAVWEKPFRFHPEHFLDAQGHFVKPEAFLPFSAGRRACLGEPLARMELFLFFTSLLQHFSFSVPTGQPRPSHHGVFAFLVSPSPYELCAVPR
A general note: Liver microsomes are a subcellular fraction often used to study metabolism.

Data set [3] deals with CYP2C9 (Homo sapiens (Human), UniProt P11712). In words: Inhibition of human liver microsomal cytochrome P450 isoenzyme CYP2C9. Particulars: human liver microsomes. Format: in vitro ADME. How it is done:
as §1

Data set [4] deals with CYP2C19 (Homo sapiens (Human), UniProt P33261). The experiment in a line: Inhibition of human liver microsomal cytochrome P450 isoenzyme CYP2C19. Format: in vitro ADME. The settings on record: human liver microsomes. How it is done:
as §1

Data set [5] concerns the target CYP1A2 (Homo sapiens (Human), UniProt P05177). It counts as in vitro ADME. The settings on record: microsomes. How it is done:
as §1

A short description of data set [6]: Pharmacokinetic study of oral and intravenous administration in rats. It counts as in vivo, rat. Particulars: male SD rats; for half-life: read-out: Half-life T1/2 (converted). The protocol:
Pharmacokinetic study of oral and intravenous administration of WX001 in rats
Male SD rats were selected, and given the test compound as detailed in Table 3.
Whole blood was collected for a certain period of time and prepared into plasma. The drug concentration was analyzed by the LC-MS/MS method, and the pharmacokinetic parameters were calculated using Phoenix WinNonlin software (Pharsight, USA).

For data set [7], the target named is THRβ (Homo sapiens, UniProt P10828). In words: GeneBLAzer TR beta-UAS-bla HEK 293T cell-based agonist assay. The settings on record: for THRß maximum agnostic capability: TR beta-UAS-bla HEK 293T cells, T3 as positive control. From the text: The present experiment employs the GeneBLAzer® TR alpha/beta-UAS-bla HEK 293T Cell-based Assay developed by ThermoFisher. The underlying principle is that TR alpha-UAS-bla HEK 293T Cell and TR beta-UAS-bla HEK 293T Cell express B-lactamase, a reporter gene controlled by the upstream UAS sequence. When a compound enters the cell and binds to THR, the receptor binds to the DNA binding region to form a complete GAL4 dimer that utilizes the GAL4-UAS system to activate β-lactamase expression, which then decomposes the substrate CCF4-AM (coumarin). The resulting product, when excited at 409 nm, emits fluorescence at a wavelength of 447 nm. If β-lactamase is not expressed, the product generates fluorescence at a wavelength of 520 nm through FRET under excitation at 409 nm. By detecting the ratio of the two fluorescences (447 nm/520 nm), the binding status of the compound to the protein can be determined, thus allowing the calculation of the EC50 of the compound.
Sequence of THRβ (P10828 whole entry, looked up, the tested form may be a part): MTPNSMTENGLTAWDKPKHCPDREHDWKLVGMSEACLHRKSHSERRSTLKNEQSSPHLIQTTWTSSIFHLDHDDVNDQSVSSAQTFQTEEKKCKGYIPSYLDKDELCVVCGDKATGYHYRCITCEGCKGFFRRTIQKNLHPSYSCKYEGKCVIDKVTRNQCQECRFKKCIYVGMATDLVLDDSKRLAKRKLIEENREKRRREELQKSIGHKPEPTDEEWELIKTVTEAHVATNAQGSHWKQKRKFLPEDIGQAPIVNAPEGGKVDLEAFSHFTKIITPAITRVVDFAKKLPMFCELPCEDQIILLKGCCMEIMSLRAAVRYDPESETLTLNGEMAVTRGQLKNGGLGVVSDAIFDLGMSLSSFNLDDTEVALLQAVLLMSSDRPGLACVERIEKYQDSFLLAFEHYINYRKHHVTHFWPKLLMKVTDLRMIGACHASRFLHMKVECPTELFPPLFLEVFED
The ECHO liquid handling workstation was used to transfer the compound to a 384-well plate, with 10 gradient concentrations for each compound, 3-fold dilution, and duplicate wells. 1.5×10^4 cells (TR beta-UAS-bla HEK 293T Cell) or 1.0×10^4 cells (TR alpha-UAS-bla HEK 293T Cell) were seeded onto the 384-well plate. HEK 293T-TR beta cells were incubated for 16 hours in a 37° C. incubator, and HEK 293T-TR alpha cells were incubated for 22 hours. The LiveBLAzer™M-FRET B/G (CCF4-AM) substrate was added to the cell plate and incubated for 2 hours at room temperature, shielded from light. The Flexstation 3 instrument was utilized to detect the fluorescence values with the wavelength of 460 nm/530 nm emitted by the product under the excitation at 409 nm. By detecting the ratio of the two fluorescences (460 nm/530 nm), the EC50 of the compound was calculated using Graphpad Prism software. […] The Z-factor (greater than 0.5) is calculated to monitor the stability of each experiment.

The target in data set [8] is CYP3A4 (Homo sapiens (Human), UniProt P08684). In words: Inhibition of human liver microsomal cytochrome P450 isoenzyme CYP3A4. Format: in vitro ADME. Particulars: human liver microsomes. The protocol:
as §1

[9] abbreviates: rat, plasma, 30 mg/kg, oral, 30 mpk.

Like-named read-outs stand apart in the source and are kept apart here.

Sequence of THRα (P10827 other isoform, or with tags, fused parts or gaps isoform P10827-2): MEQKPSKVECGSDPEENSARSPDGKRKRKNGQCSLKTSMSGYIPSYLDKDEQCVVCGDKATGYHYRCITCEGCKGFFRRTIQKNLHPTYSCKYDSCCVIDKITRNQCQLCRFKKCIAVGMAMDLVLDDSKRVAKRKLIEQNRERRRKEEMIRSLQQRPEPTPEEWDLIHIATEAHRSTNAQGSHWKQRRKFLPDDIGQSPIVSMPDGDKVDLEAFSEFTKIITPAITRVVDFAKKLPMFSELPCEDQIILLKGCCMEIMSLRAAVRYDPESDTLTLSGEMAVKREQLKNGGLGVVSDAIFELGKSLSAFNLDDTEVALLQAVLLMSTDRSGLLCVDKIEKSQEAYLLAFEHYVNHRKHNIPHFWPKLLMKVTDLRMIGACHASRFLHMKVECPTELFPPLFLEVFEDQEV
Sequence of CYP2C19 (P33261 whole entry): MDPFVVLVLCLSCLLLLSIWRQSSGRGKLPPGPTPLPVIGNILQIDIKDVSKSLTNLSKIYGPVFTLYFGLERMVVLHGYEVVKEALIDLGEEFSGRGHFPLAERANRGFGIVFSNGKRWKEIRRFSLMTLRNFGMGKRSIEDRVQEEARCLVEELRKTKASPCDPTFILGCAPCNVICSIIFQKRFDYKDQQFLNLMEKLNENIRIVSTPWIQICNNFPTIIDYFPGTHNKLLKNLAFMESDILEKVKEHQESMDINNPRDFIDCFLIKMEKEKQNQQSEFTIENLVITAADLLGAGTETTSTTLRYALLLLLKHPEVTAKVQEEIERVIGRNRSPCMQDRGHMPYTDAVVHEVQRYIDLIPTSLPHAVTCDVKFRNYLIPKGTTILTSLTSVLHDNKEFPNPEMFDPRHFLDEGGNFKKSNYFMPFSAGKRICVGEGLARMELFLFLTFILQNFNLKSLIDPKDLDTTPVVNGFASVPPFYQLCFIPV
Sequence of CYP3A4 (P08684 whole entry): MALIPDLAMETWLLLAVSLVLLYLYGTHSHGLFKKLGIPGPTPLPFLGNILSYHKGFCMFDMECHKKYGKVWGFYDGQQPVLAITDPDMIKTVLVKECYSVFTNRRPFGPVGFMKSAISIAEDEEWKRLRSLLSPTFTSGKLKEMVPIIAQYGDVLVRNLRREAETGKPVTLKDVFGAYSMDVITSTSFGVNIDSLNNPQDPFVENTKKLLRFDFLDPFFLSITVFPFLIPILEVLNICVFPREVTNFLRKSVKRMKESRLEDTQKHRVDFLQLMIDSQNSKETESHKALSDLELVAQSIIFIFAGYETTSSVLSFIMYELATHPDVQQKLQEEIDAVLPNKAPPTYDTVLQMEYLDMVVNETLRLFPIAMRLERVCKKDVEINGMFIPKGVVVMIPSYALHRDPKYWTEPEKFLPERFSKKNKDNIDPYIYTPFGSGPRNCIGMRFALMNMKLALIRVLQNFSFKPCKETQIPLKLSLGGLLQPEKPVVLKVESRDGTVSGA
Sequence of CYP2C9 (P11712 whole entry): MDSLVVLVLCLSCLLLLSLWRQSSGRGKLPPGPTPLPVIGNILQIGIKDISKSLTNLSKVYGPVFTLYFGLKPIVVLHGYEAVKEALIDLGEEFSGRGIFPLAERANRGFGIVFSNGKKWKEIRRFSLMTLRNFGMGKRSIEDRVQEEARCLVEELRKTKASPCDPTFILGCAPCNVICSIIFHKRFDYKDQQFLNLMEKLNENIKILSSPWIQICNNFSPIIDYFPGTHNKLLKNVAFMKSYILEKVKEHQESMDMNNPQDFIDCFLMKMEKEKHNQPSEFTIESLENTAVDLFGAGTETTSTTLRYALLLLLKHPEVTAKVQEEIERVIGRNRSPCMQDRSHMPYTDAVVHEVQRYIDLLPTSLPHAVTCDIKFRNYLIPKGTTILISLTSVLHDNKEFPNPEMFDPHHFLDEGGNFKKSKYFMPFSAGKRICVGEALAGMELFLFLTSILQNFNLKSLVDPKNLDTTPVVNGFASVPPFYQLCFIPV
Sequence of CYP1A2 (P05177 whole entry): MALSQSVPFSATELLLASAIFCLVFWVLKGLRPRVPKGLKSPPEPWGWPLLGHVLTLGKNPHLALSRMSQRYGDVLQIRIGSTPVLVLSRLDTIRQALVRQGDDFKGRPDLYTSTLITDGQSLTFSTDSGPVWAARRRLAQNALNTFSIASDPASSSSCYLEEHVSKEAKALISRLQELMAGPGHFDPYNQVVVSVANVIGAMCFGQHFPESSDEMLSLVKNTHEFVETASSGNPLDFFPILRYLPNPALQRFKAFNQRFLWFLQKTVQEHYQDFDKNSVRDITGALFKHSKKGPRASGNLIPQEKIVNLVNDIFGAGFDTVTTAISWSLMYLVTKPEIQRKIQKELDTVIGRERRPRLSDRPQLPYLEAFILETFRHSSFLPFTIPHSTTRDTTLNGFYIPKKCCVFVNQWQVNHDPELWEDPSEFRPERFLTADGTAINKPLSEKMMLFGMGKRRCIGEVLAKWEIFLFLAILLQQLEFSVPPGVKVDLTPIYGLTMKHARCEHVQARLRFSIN

Turning to `Cc1cc(NC(=O)c2noc(=O)[nH]2)cc(C)c1Cc1ccc(O)c2c1CCCC2` [WX001], in data set [1], the EC50 – broadly, the concentration at which the effect is half-maximal – came out at 122 nM and the “THRα maximum agnostic capability” value is reported as 24%. For the same compound, in data set [2], the half-maximal inhibitory concentration (IC50) (in general, the concentration needed to halve the response being measured) worked out at 41600 nM and the “inhibitory effect on CYP2D6 (in words)” value is listed as “no inhibitory effects”. Besides, in data set [3], the IC50 was determined as 3270 nM and the “inhibition against CYP2C9 (in words)” value was “moderate inhibition”. Further, in data set [4], 5090 nM corresponded to half-maximal inhibition (IC50) and the “inhibitory effect on CYP2C19 (in words)” value is “no inhibitory effects”. In addition, the “inhibitory effect on CYP1A2 (in words)” value in data set [5] was “no inhibitory effects”. For the same compound, in data set [6] (intravenous, 3 mpk), the “Area under the plasma concentration-time curve/Dosage DNAUC0-last” value is recorded as 5343 nM. h/mpk. Moreover, the “Area under the plasma concentration-time curve/Dosage DNAUC0-last” value in data set [6] (oral, 30 mpk) is recorded as 1939 nM. h/mpk. The Vd in data set [6] (rat, plasma, 3 mg/kg, intravenous, 3 mpk, read-out: Apparent volume of distribution Vdss) stood at 0.411 L/kg. Further, the clearance in data set [6] (rat, plasma, 3 mg/kg, intravenous, 3 mpk, read-out: Clearance CL) turned out to be 7.93 mL/min/kg. Besides, the half-life in data set [6] (rat, plasma, 3 mg/kg, intravenous, 3 mpk) is 1.66 h. In data set [6] (setting [9]), the bioavailability – broadly, dose-corrected exposure relative to a reference, in per cent – came to 36% and the half-life was 1.6 h. Besides, in data set [7], the EC50 was found to be 39.4 nM and the “THRß maximum agnostic capability” value turned out to be 103%. In data set [8], the “inhibitory effect on CYP3A4 (in words)” value is on record as “no inhibitory effects”. In data set [8] (midazolam as probe substrate), this compound had an IC50 of 25400 nM.
On to `Cc1cc(NC(=O)c2noc(=O)[nH]2)cc(C)c1Cc1ccc(O)c(Cc2ccccc2)c1` [WX002], for which, in data set [1], the concentration for a half-maximal effect (EC50) was 1000 nM and the “THRα maximum agnostic capability” value came to 101%. In addition, in data set [7], the EC50 is 85.5 nM and the “THRß maximum agnostic capability” value is 99%.
Regarding `Cc1cc(NC(=O)c2noc(=O)[nH]2)cc(C)c1Cc1cc(I)c(O)c2c1CCCC2` [WX005], in data set [1], the response was half-maximal at 155 nM (EC50) and the “THRα maximum agnostic capability” value was 85%. Moreover, in data set [7], a half-maximal effect (EC50) was put at 57.8 nM and the “THRß maximum agnostic capability” value is 96%.
The matching figures for `Cc1cc(NC(=O)c2noc(=O)[nH]2)cc(C)c1Cc1cc(F)c(O)c2c1CCCC2` [WX006]: 435 nM, 86%, 105 nM and 90%.

The record behind these values is US20240239761A1, “BICYCLIC PHENOL COMPOUNDS AND USE THEREOF” (MEDSHINE DISCOVERY INC., priority 2021, published 2024).
